Data reported in PubChem BioAssay AID248 (DTP/NCI, 2004).
Several values for one entry are separate records, joined by “and”; a condition that tells them apart may be missing. Equal entries are not always repeated. Inconclusive results and toxic doses are left out. Cut-off read from the data, not from the text of the source: active = T/C of 150% or more; inactive = T/C below 125%.

Tested on: L1210 leukemia ip in BDF1 mice, survival T/C
Test: NCI In Vivo Anticancer Drug Screen. Data for tumor model L1210 Leukemia (intraperitoneal) in B6D2F1 (BDF1) mice
Details: endpoint: mean survival time, higher = longer survival
Procedure, shortened: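 Ratio derived from survival: compound-dosed mice over vehicle-dosed mice, all bearing a transplantable tumor.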

[1] = dose: 100.0 mg/kg/injection, schedule: Q04DX002 (ip), vehicle: Klucel (hydroxypropylcellulose) (HPC)
[2] = dose: 200.0 mg/kg/injection, schedule: Q04DX002 (ip), vehicle: Klucel (hydroxypropylcellulose) (HPC)
[3] = dose: 400.0 mg/kg/injection, schedule: Q04DX002 (ip), vehicle: Klucel (hydroxypropylcellulose) (HPC)
[4] = dose: 100.0 mg/kg/injection, schedule: Q01DX009 (ip), vehicle: Klucel (hydroxypropylcellulose) (HPC)
[5] = dose: 100.0 mg/kg/injection, schedule: Q04DX003 (ip), vehicle: Klucel (hydroxypropylcellulose) (HPC)
[6] = dose: 200.0 mg/kg/injection, schedule: Q01DX009 (ip), vehicle: Klucel (hydroxypropylcellulose) (HPC)
[7] = dose: 400.0 mg/kg/injection, schedule: Q01DX009 (ip), vehicle: Klucel (hydroxypropylcellulose) (HPC)
[8] = dose: 50.0 mg/kg/injection, schedule: Q01DX009 (ip), vehicle: Klucel (hydroxypropylcellulose) (HPC)
[9] = dose: 100.0 mg/kg/injection, schedule: Q01DX009 (ip), vehicle: saline with Tween-80
[10] = dose: 100.0 mg/kg/injection, schedule: Q04DX003 (ip), vehicle: saline with Tween-80
[11] = dose: 200.0 mg/kg/injection, schedule: Q04DX003 (ip), vehicle: saline with Tween-80
[12] = dose: 400.0 mg/kg/injection, schedule: Q04DX003 (ip), vehicle: saline with Tween-80
[13] = dose: 100.0 mg/kg/injection, schedule: Q01DX001 (ip), vehicle: saline
[14] = dose: 200.0 mg/kg/injection, schedule: Q01DX001 (ip), vehicle: saline
[15] = dose: 400.0 mg/kg/injection, schedule: Q01DX001 (ip), vehicle: saline
[16] = dose: 25.0 mg/kg/injection, schedule: Q01DX009 (ip), vehicle: saline with Tween-80

Measured: T/C

O=C(CCl)Nc1cccc(S(=O)(=O)F)c1
inactive: dose: 12.5 mg/kg/injection, schedule: Q01DX009 (ip), vehicle: carboxymethylcellulose (CMC) 93 % of control | dose: 25.0 mg/kg/injection, schedule: Q01DX009 (ip), vehicle: carboxymethylcellulose (CMC) 88 % of control | dose: 50.0 mg/kg/injection, schedule: Q01DX009 (ip), vehicle: carboxymethylcellulose (CMC) 87 % of control | dose: 100.0 mg/kg/injection, schedule: Q04DX003 (ip), vehicle: carboxymethylcellulose (CMC) 103 % of control

O=C(C1CCC2c3ccccc3CCC2C1C(=O)N1CCCCC1)N1CCCCC1 (stereo not drawn)
inactive: dose: 50.0 mg/kg/injection, schedule: Q01DX001 (ip), vehicle: carboxymethylcellulose (CMC) 103 % of control | dose: 100.0 mg/kg/injection, schedule: Q01DX001 (ip), vehicle: carboxymethylcellulose (CMC) 101 % of control | dose: 200.0 mg/kg/injection, schedule: Q01DX001 (ip), vehicle: carboxymethylcellulose (CMC) 108 % of control

O=C(OCc1ccccc1CN1CCCC1)c1ccc(Cl)cc1
inactive: [1] 111 % of control | [2] 96 % of control | [3] 111 % of control

CCOC(=O)c1cc2nc(C(C)C)n(Cc3ccccc3)c2cc(C(=O)OCC)c1=O
inactive: dose: 100.0 mg/kg/injection, schedule: Q01DX001 (ip), vehicle: Klucel (hydroxypropylcellulose) (HPC) 96 % of control | [4] 104 % of control and 89 % of control | [1] 98 % of control and 105 % of control | [5] 97 % of control | dose: 200.0 mg/kg/injection, schedule: Q01DX001 (ip), vehicle: Klucel (hydroxypropylcellulose) (HPC) 91 % of control | [6] 97 % of control and 89 % of control | [2] 96 % of control | dose: 200.0 mg/kg/injection, schedule: Q04DX003 (ip), vehicle: Klucel (hydroxypropylcellulose) (HPC) 100 % of control | dose: 400.0 mg/kg/injection, schedule: Q01DX001 (ip), vehicle: Klucel (hydroxypropylcellulose) (HPC) 100 % of control | [7] 98 % of control | [3] 88 % of control and 89 % of control | dose: 400.0 mg/kg/injection, schedule: Q04DX003 (ip), vehicle: Klucel (hydroxypropylcellulose) (HPC) 100 % of control

O=C(O)/C=C/c1nc2ccccc2c(=O)[nH]1
inactive: [8] 114 % of control | [4] 100 % of control

O=C(/C=C/c1ccco1)c1ccc([N+](=O)[O-])cc1
inactive: dose: 25.0 mg/kg/injection, schedule: Q04DX003 (ip), vehicle: Klucel (hydroxypropylcellulose) (HPC) 106 % of control | dose: 50.0 mg/kg/injection, schedule: Q04DX003 (ip), vehicle: Klucel (hydroxypropylcellulose) (HPC) 104 % of control | [5] 97 % of control

COC(OC)c1nc(SC)[nH]c(=O)c1C
inactive: [9] 88 % of control | [10] 105 % of control | dose: 200.0 mg/kg/injection, schedule: Q01DX009 (ip), vehicle: saline with Tween-80 89 % of control | [11] 116 % of control | dose: 400.0 mg/kg/injection, schedule: Q01DX009 (ip), vehicle: saline with Tween-80 88 % of control | [12] 112 % of control

c1ccc(-c2nnnn2-c2ccccc2)cc1
inactive: dose: 100.0 mg/kg/injection, schedule: Q01DX001 (ip), vehicle: saline with Tween-80 102 % of control | dose: 200.0 mg/kg/injection, schedule: Q01DX001 (ip), vehicle: saline with Tween-80 98 % of control | dose: 400.0 mg/kg/injection, schedule: Q01DX001 (ip), vehicle: saline with Tween-80 105 % of control

CC(C)=CCN1CCC2(C)c3cc(O)ccc3CC1C2C (stereo not drawn)
inactive: dose: 15.62 mg/kg/injection, schedule: Q04DX003 (ip), vehicle: Klucel (hydroxypropylcellulose) (HPC) 96 % of control | dose: 25.0 mg/kg/injection, schedule: Q01DX009 (ip), vehicle: Klucel (hydroxypropylcellulose) (HPC) 110 % of control | dose: 31.25 mg/kg/injection, schedule: Q04DX003 (ip), vehicle: Klucel (hydroxypropylcellulose) (HPC) 100 % of control | [8] 110 % of control | dose: 62.5 mg/kg/injection, schedule: Q04DX003 (ip), vehicle: Klucel (hydroxypropylcellulose) (HPC) 100 % of control | [4] 110 % of control | dose: 125.0 mg/kg/injection, schedule: Q04DX003 (ip), vehicle: Klucel (hydroxypropylcellulose) (HPC) 94 % of control | [6] 98 % of control | dose: 250.0 mg/kg/injection, schedule: Q04DX003 (ip), vehicle: Klucel (hydroxypropylcellulose) (HPC) 102 % of control

C=CCOCCC(=O)OCC=C
inactive: [8] 95 % of control | [4] 92 % of control | dose: 100.0 mg/kg/injection, schedule: Q04DX003 (ip), vehicle: saline 103 % of control | dose: 200.0 mg/kg/injection, schedule: Q04DX003 (ip), vehicle: saline 103 % of control

CC(OC(=O)Nc1ccc(S(=O)(=O)NC2CCCCC2)cc1)(c1ccccc1)C1CCCCC1 (stereo not drawn)
inactive: [13] 105 % of control | [14] 105 % of control | [15] 100 % of control

CC(C)(C)c1ccc(SC(=O)Nc2cc([N+](=O)[O-])ccc2Cl)cc1
inactive: [16] 90 % of control | dose: 50.0 mg/kg/injection, schedule: Q01DX009 (ip), vehicle: saline with Tween-80 101 % of control | [9] 100 % of control and 92 % of control

O=c1ccn(Cc2cccc(OCCCc3ccccc3)c2)c(=O)[nH]1
inactive: [4] 96 % of control | [6] 102 % of control | [7] 97 % of control

O=C(NSN1CCOCC1)c1ccccc1
inactive: [1] 102 % of control | [2] 98 % of control

CC1CCc2cc3c(cc2C1)S(=O)(=O)c1ccccc1-3 (stereo not drawn)
inactive: [13] 96 % of control | [14] 86 % of control | [15] 86 % of control

C1CCC(CCCCC2CCC(CCCCC3CCCCC3)CC2)CC1 (stereo not drawn)
inactive: [10] 91 % of control | [11] 93 % of control | [12] 96 % of control

COc1ccc(CCOC(C)=O)cc1
inactive: dose: 100.0 mg/kg/injection, schedule: Q04DX002 (ip), vehicle: saline 97 % of control | dose: 200.0 mg/kg/injection, schedule: Q04DX002 (ip), vehicle: saline 102 % of control | dose: 400.0 mg/kg/injection, schedule: Q04DX002 (ip), vehicle: saline 102 % of control

O=[N+]([O-])c1cccc(CS(=O)(=O)c2ccccc2)c1-c1c(CS(=O)(=O)c2ccccc2)cccc1[N+](=O)[O-]
inactive: dose: 100.0 mg/kg/injection, schedule: Q04DX003 (ip), vehicle: saline sonified 101 % of control | dose: 200.0 mg/kg/injection, schedule: Q04DX003 (ip), vehicle: saline sonified 95 % of control | dose: 400.0 mg/kg/injection, schedule: Q04DX003 (ip), vehicle: saline sonified 94 % of control

COc1ccc(OC(=O)Nc2ccccc2C)cc1
inactive: dose: 50.0 mg/kg/injection, schedule: Q04DX002 (ip), vehicle: Klucel (hydroxypropylcellulose) (HPC) 104 % of control | [1] 100 % of control and 101 % of control | [2] 101 % of control | [3] 104 % of control and 111 % of control

COC1/C=C/OC2(C)Oc3c(C)c(O)c4c(O)c(c(C=NOC(c5ccccc5)c5ccccc5)c(O)c4c3C2=O)NC(=O)/C(C)=C/C=C/C(C)C(O)C(C)C(O)C(C)C(OC(C)=O)C1C (stereo not drawn)
inactive: dose: 25.0 mg/kg/injection, schedule: Q04DX003 (ip), vehicle: water 102 % of control | dose: 50.0 mg/kg/injection, schedule: Q04DX003 (ip), vehicle: water 102 % of control | dose: 100.0 mg/kg/injection, schedule: Q04DX003 (ip), vehicle: water 96 % of control | dose: 200.0 mg/kg/injection, schedule: Q04DX003 (ip), vehicle: water 98 % of control

CCOC(=O)CCCCCCCCCC[N+](CC)(CC)CC(=O)c1ccc(NC(C)=O)cc1
inactive: dose: 75.0 mg/kg/injection, schedule: Q01DX001 (ip), vehicle: other 96 % of control | dose: 150.0 mg/kg/injection, schedule: Q01DX001 (ip), vehicle: other 101 % of control

CCCCN(CCCC)CC(O)c1ccc2cc(Cl)cc(Cl)c2n1 (stereo not drawn)
inactive: dose: 6.25 mg/kg/injection, schedule: Q01DX009 (ip), vehicle: saline with Tween-80 94 % of control | dose: 6.25 mg/kg/injection, schedule: Q04DX003 (ip), vehicle: saline with Tween-80 98 % of control | dose: 12.5 mg/kg/injection, schedule: Q01DX009 (ip), vehicle: saline with Tween-80 98 % of control | dose: 12.5 mg/kg/injection, schedule: Q04DX003 (ip), vehicle: saline with Tween-80 95 % of control | [16] 98 % of control | dose: 25.0 mg/kg/injection, schedule: Q04DX003 (ip), vehicle: saline with Tween-80 95 % of control
